Reference: paper PMC12373729 (Scientific Reports, 2025)
Entries after “also recorded” stand apart in the source; their conditions may differ. Counter-ions that a name gives are not always drawn. Like-named read-outs stand apart in the source and are kept apart here.

Key:
[1] = in vitro; conditions: African green monkey
[2] = test system: SARS-CoV-2; assay: microbe, parasite or virus in culture; type: cell-based
[3] = test system: Vero E6 cells
[4] = test system: Vero E6 cells; assay: Cell viability / 50% cytotoxic concentration, EZ-Cytox kit; conditions: Vero E6 cells, 1 nM–100 µM, 2 days of treatment; Table S2
[5] = as above; conditions: African green monkey, CC50, Vero E6 cells
[6] = all patients, clinical settings; cited from earlier work
[7] = test system: SARS-CoV-2; conditions: cited from earlier work
[8] = test system: ZIKV protease; set-up: method as in Cardoso et al. 43, 44; conditions: competitive inhibition; ref Cardoso et al. 43, 44; cited from earlier work
[9] = test system: SARS-CoV-2 papain-like protease; conditions: cited from earlier work
[10] = test system: CHIKV nsP2 protease; set-up: method as in Cardoso et al. 43, 44; conditions: ref Cardoso et al. 43, 44; cited from earlier work
[11] = test system: YFV protease; conditions: competitive inhibition; ref Cardoso et al. 43, 44; cited from earlier work
[12] = Severe acute respiratory syndrome coronavirus 2, Vero C1008, Vero E6 cells, MOI 0.01, compound together with virus for 2 h, titers at 48 h, Table S2, '-' = no significant antiviral effect, read-out: IC50
[13] = Vero E6 cells, MOI 0.01, compound together with virus for 2 h, titers at 48 h, Table S2, '-' = no significant antiviral effect, read-out: IC50
[14] = 1 nM–100 µM, 2 days of treatment, Table S2
[15] = Severe acute respiratory syndrome coronavirus 2, Vero C1008, Vero E6 cells, MOI 0.01, treatment during inoculation 2 h, then drug-free 48 h, Fig. 1, read-out: IC50
[16] = Severe acute respiratory syndrome coronavirus 2, Vero C1008, compound added 2 h before inoculation, washed, then infected 2 h, titers 48 h post-infection, '-' = no measurable antiviral effect, read-out: IC50 Pre-infection
[17] = Severe acute respiratory syndrome coronavirus 2, Vero C1008, infected 2 h, washed, then medium containing compound, titers 48 h post-infection, '-' = no measurable antiviral effect, read-out: IC50 Post-infection
[18] = Vero E6 cells, MOI 0.01, treatment during inoculation 2 h, then drug-free 48 h, Fig. 1, read-out: IC50

Question: What does the source list for `N[C@@H](Cc1c[nH]c2ccc(O)cc12)C(=O)O` [5-Hydroxy-L-tryptophan (4PQ), 5-hydroxy-L-tryptophan]?
Answer: CC50 at 2 days [1]: > 100 µM; IC50 [2, 12]: > 100 µM

Question: What does the source list for `COc1cc2nc(N3CCNCC3)nc(N)c2cc1OC` [6,7-dimethoxy-2-(1-piperazinyl)-4-quinazolinamine]?
Answer: CC50 at 2 days [1]: > 100 µM; IC50 [2, 12]: > 100 µM

Question: For `Nc1ncnc2nc[nH]c12` [Adenine (ADE), adenine], which CC50 [1] is on record?
Answer: > 100 µM

Question: And the IC50 [2, 12]?
Answer: > 100 µM

Question: For `C/C1=C2/N[C@H]([C@H](CC(N)=O)[C@@]2(C)CCC(=O)NC[C@@H](C)OP(=O)(O)O[C@H]2[C@@H](O)[C@@H](n3cnc4cc(C)c(C)cc43)O[C@@H]2CO)[C@]2(C)N=C(/C(C)=C3N=C(/C=C4N=C1[C@@H](CCC(N)=O)C\4(C)C)[C@@H](CCC(N)=O)[C@]\3(C)CC(N)=O)[C@@H](CCC(N)=O)[C@]2(C)CC(N)=O.C[C@H]1O[C@@H](n2cnc3c(N)ncnc32)[C@H](O)[C@@H]1O.[Co]` [Coenzyme B12 (B1Z), coenzyme B12], which CC50 [3] is on record?
Answer: > 100 µM

Question: And the IC50 [2, 13]?
Answer: > 100 µM

Question: With `C/C1=C2/[N-][C@H]([C@H](CC(N)=O)[C@@]2(C)CCC(=O)NC[C@@H](C)OP(=O)([O-])O[C@H]2[C@@H](O)[C@@H](n3cnc4cc(C)c(C)cc43)O[C@@H]2CO)[C@]2(C)N=C(/C(C)=C3N=C(/C=C4N=C1[C@@H](CCC(N)=O)C\4(C)C)[C@@H](CCC(N)=O)[C@]\3(C)CC(N)=O)[C@@H](CCC(N)=O)[C@]2(C)CC(N)=O.[Co+3].[OH-]` [Hydroxocobalamin (HPA), hydroxocobalamin] as the compound, how does the CC50 [4] read?
Answer: > 100 µM

Question: What about the IC50 [2, 13] of the same compound?
Answer: > 100 µM

Question: For `O=c1[nH]cnc2nc[nH]c12` [Hypoxanthine (HPA), hypoxanthine], which CC50 at 2 days [5, 14] is on record?
Answer: > 100 µM

Question: And the IC50 [2, 12]?
Answer: > 100 µM

Question: With `NC[C@@H]1O[C@H](O[C@H]2[C@@H](O)[C@H](O[C@@H]3[C@@H](O)[C@H](N)C[C@H](N)[C@H]3O[C@H]3O[C@H](CN)[C@@H](O)[C@H](O)[C@H]3N)O[C@@H]2CO)[C@H](N)[C@@H](O)[C@@H]1O` [Neomycin solution (NMY), neomycin solution] as the compound, how does the CC50 [4] read?
Answer: > 100 µM

Question: And the IC50 [2, 13]?
Answer: > 100 µM

Question: Which “patients with elevated liver enzymes” value [6] does the source give for `CCC(CC)COC(=O)[C@H](C)N[P@](=O)(OC[C@H]1O[C@@](C#N)(c2ccc3c(N)ncnn23)[C@H](O)[C@@H]1O)Oc1ccccc1` [Remdesivir] here?
Answer: 35%

Question: And the CC50 at 2 days ([5]; 0–100 μM, Table S3)?
Answer: 98.9 µM

Question: What about the CC50 at 2 days [5, 14] of the same compound?
Answer: > 100 µM

Question: What about the IC50 [2, 15] of the same compound?
Answer: 25.8 µM

Question: What about the IC50 [2, 16] of the same compound?
Answer: < 6.11 µM

Question: And the IC50 [2, 17]?
Answer: 3.47 µM

Question: What about the IC50 [2, 18] of the same compound?
Answer: 25.8 µM

Question: Which CC50 [4] does the source give for `Nc1ncnc2c1ncn2[C@@H]1O[C@H](CSCC[C@H](N)C(=O)O)[C@@H](O)[C@H]1O` [S-Adenosyl-L-homocysteine (SAH), S-adenosyl-l-homocysteine] here?
Answer: > 100 µM

Question: And the IC50 [2, 13]?
Answer: > 100 µM

Question: Which CC50 [3] does the source give for `Nc1ncnc2c1ncn2[C@@H]1O[C@@H]2COP(=O)(O)O[C@H]3[C@@H](O)[C@H](n4cnc5c(N)ncnc54)O[C@@H]3COP(=O)(O)O[C@H]2[C@H]1O` [c-di-AMP sodium salt (2BA), c-di-AMP sodium salt] here?
Answer: > 100 µM

Question: What about the IC50 [2, 13] of the same compound?
Answer: > 100 µM

Question: Which CC50 [4] does the source give for `Nc1nc2c(ncn2[C@@H]2O[C@@H]3COP(=O)(O)O[C@H]4[C@@H](O)[C@H](n5cnc6c(N)ncnc65)O[C@@H]4COP(=O)(O)O[C@H]3[C@H]2O)c(=O)[nH]1` [cGAMP sodium salt] here?
Answer: > 100 µM

Question: What about the IC50 [2, 13] of the same compound?
Answer: > 100 µM

Question: With `Cc1cc2nc3c(=O)[nH]c(=O)nc-3n(C[C@H](O)[C@H](O)[C@H](O)COP(=O)(O)O)c2cc1C` [riboflavin 5′-monophosphate sodium salt hydrate] as the compound, how does the CC50 ([3]; African green monkey, 2 days) read?
Answer: > 100 µM

Question: What about the CC50 at 2 days [1] of the same compound?
Answer: 98.9 µM

Question: What about the IC50 [2, 12] of the same compound?
Answer: 59.4 µM

Question: And the IC50 [2, 16]?
Answer: > 100 µM

Question: What about the IC50 ([2]; Severe acute respiratory syndrome coronavirus 2, Vero C1008, compound and virus simultaneously for 2 h, washed, titers 48 h post-infection, read-out: IC50 During infection) of the same compound?
Answer: 59.4 µM

Question: And the IC50 [2, 17]?
Answer: > 100 µM

Question: Which results are given for `Cc1cc2nc3c(=O)[nH]c(=O)nc-3n(C[C@H](O)[C@H](O)[C@H](O)CO)c2cc1C` [riboflavin]?
Answer: effect on viral replication in cellular models [7]: fails to block viral replication; IC50, ZIKV protease [8]: medium micromolar range; CC50 at 2 days ([5]; text and Fig. 1 (Fig. 1: 2 h treatment, then drug-free media 48 h)): > 100 µM; concentration inhibiting SARS-CoV-2 papain-like protease in vitro [9]: > 50 µM; concentration inhibiting viral papain-like protease (PLpro) ([9]; high concentrations, ref 2 (supplement)): > 50 µM; activity against CHIKV nsP2 protease [10]: potent activity; IC50, YFV protease [11]: medium micromolar range; IC50 [2, 15]: 59.4 µM; antiviral effect, treatment post-infection ([2]; Vero E6 cells, 2 h post-infection, in words): no measurable antiviral effects; also recorded: no effect; antiviral effect, treatment prior to infection ([2]; Vero E6 cells, 2 h prior to infection, in words): no measurable antiviral effects; also recorded: no effect; IC50 [2, 18]: 59.4 µM; antiviral effect, treatment during viral inoculation ([2]; Vero E6 cells, in words): significant inhibition; also recorded: significantly reduced viral replication; effect on viral replication when added to the culture medium after viral inoculation ([2]; drug-containing media for 48 h, Supplementary Fig. S1, in words): additional inhibitory effects on viral replication were observed
